Conditions: n = 8
Method: All patients received 140 mg bimiralisib (PQR309) orally once daily on 2 consecutive days followed by 5 days without treatment weekly until unacceptable toxicity, tumor progression, patient request for withdrawal, investigator judgment, or death.
Radiologic tumor assessments were performed using computed tomography at baseline and every 6 weeks. Safety was continuously monitored.

## Nc1cc(C(F)(F)F)c(-c2nc(N3CCOCC3)nc(N3CCOCC3)n2)cn1 [Bimiralisib, 5-(4,6-dimorpholino-1,3,5-triazin-2-yl)-4-(trifluoromethyl)pyridin-2-amine]
  Chest pain, Grade 3/4, patients: 0 n (%)
  Chest pain, Grade 3/4, total number of events: 0
  Confusional state, Grade 1, patients: 2 (25.0) n (%)
  Confusional state, Grade 1, total number of events: 2
  Confusional state, Grade 2, patients: 0 n (%)
  Confusional state, Grade 2, total number of events: 0
  Confusional state, Grade 3/4, patients: 0 n (%)
  Confusional state, Grade 3/4, total number of events: 0
  Cough, Grade 1, patients: 1 (12.5) n (%)
  Cough, Grade 1, total number of events: 1
  Cough, Grade 2, patients: 0 n (%)
  Cough, Grade 2, total number of events: 0
  Cough, Grade 3/4, patients: 0 n (%)
  Cough, Grade 3/4, total number of events: 0
  Decreased appetite, Grade 1, patients: 0 n (%)
  Decreased appetite, Grade 1, total number of events: 0
  Decreased appetite, Grade 2, patients: 1 (12.5) n (%)
  Decreased appetite, Grade 2, total number of events: 1
  Decreased appetite, Grade 3/4, patients: 0 n (%)
  Decreased appetite, Grade 3/4, total number of events: 0
  Dehydration, Grade 1, patients: 0 n (%)
  Dehydration, Grade 1, total number of events: 0
  Dehydration, Grade 2, patients: 1 (12.5) n (%)
  Dehydration, Grade 2, total number of events: 1
  Dehydration, Grade 3/4, patients: 0 n (%)
  Dehydration, Grade 3/4, total number of events: 0
  Diarrhea, Grade 1, patients: 0 n (%)
  Diarrhea, Grade 1, total number of events: 0
  Diarrhea, Grade 2, patients: 1 (12.5) n (%)
  Diarrhea, Grade 2, total number of events: 1
  Diarrhea, Grade 3/4, patients: 0 n (%)
  Diarrhea, Grade 3/4, total number of events: 0
  Disease progression, Grade 1, patients: 0 n (%)
  Disease progression, Grade 1, total number of events: 0
  Disease progression, Grade 2, patients: 0 n (%)
  Disease progression, Grade 2, total number of events: 0
  Disease progression, Grade 3/4, patients: 1 (12.5) n (%)
  Disease progression, Grade 3/4, total number of events: 1
  Dry skin, Grade 1, patients: 1 (12.5) n (%)
  Dry skin, Grade 1, total number of events: 1
  Dry skin, Grade 2, patients: 0 n (%)
  Dry skin, Grade 2, total number of events: 0
  Dry skin, Grade 3/4, patients: 0 n (%)
  Dry skin, Grade 3/4, total number of events: 0
  Dysarthria, Grade 1, patients: 1 (12.5) n (%)
  Dysarthria, Grade 1, total number of events: 1
  Dysarthria, Grade 2, patients: 0 n (%)
  Dysarthria, Grade 2, total number of events: 0
  Dysarthria, Grade 3/4, patients: 0 n (%)
  Dysarthria, Grade 3/4, total number of events: 0
  Ear and labyrinth disorders, Grade 1, patients: 2 (25.0) n (%)
  Ear and labyrinth disorders, Grade 1, total number of events: 2
  Ear and labyrinth disorders, Grade 2, patients: 0 n (%)
  Ear and labyrinth disorders, Grade 2, total number of events: 0
  Ear and labyrinth disorders, Grade 3/4, patients: 0 n (%)
  Ear and labyrinth disorders, Grade 3/4, total number of events: 0
  Ear pain, Grade 1, patients: 1 (12.5) n (%)
  Ear pain, Grade 1, total number of events: 1
  Ear pain, Grade 2, patients: 0 n (%)
  Ear pain, Grade 2, total number of events: 0
  Ear pain, Grade 3/4, patients: 0 n (%)
  Ear pain, Grade 3/4, total number of events: 0
  Eye disorder, Grade 1, patients: 1 (12.5) n (%)
  Eye disorder, Grade 1, total number of events: 1
  Eye disorder, Grade 2, patients: 0 n (%)
  Eye disorder, Grade 2, total number of events: 0
  Eye disorder, Grade 3/4, patients: 0 n (%)
  Eye disorder, Grade 3/4, total number of events: 0
  Eye disorders, Grade 1, patients: 1 (12.5) n (%)
  Eye disorders, Grade 1, total number of events: 1
  Eye disorders, Grade 2, patients: 0 n (%)
  Eye disorders, Grade 2, total number of events: 0
  Eye disorders, Grade 3/4, patients: 0 n (%)
  Eye disorders, Grade 3/4, total number of events: 0
  Fatigue, Grade 1, patients: 2 (25.0) n (%)
  Fatigue, Grade 1, total number of events: 2
  Fatigue, Grade 2, patients: 1 (12.5) n (%)
  Fatigue, Grade 2, total number of events: 1
  Fatigue, Grade 3/4, patients: 0 n (%)
  Fatigue, Grade 3/4, total number of events: 0
  Gait disturbance, Grade 1, patients: 1 (12.5) n (%)
  Gait disturbance, Grade 1, total number of events: 1
  Gait disturbance, Grade 2, patients: 0 n (%)
  Gait disturbance, Grade 2, total number of events: 0
  Gait disturbance, Grade 3/4, patients: 0 n (%)
  Gait disturbance, Grade 3/4, total number of events: 0
  Gastroesophageal reflux disease, Grade 1, patients: 1 (12.5) n (%)
  Gastroesophageal reflux disease, Grade 1, total number of events: 1
  Gastroesophageal reflux disease, Grade 2, patients: 0 n (%)
  Gastroesophageal reflux disease, Grade 2, total number of events: 0
  Gastroesophageal reflux disease, Grade 3/4, patients: 0 n (%)
  Gastroesophageal reflux disease, Grade 3/4, total number of events: 0
  Gastrointestinal disorders, Grade 1, patients: 2 (25.0) n (%)
  Gastrointestinal disorders, Grade 1, total number of events: 2
  Gastrointestinal disorders, Grade 2, patients: 3 (37.5) n (%)
  Gastrointestinal disorders, Grade 2, total number of events: 5
  Gastrointestinal disorders, Grade 3/4, patients: 0 n (%)
  Gastrointestinal disorders, Grade 3/4, total number of events: 0
  General disorders and administration site conditions, Grade 1, patients: 5 (62.5) n (%)
